According to article PMC4865888 (Cell chemical biology, 2016):

What was measured:
DENV2 NGC [1] = assay: time-of-addition experiments, BHK21 cells, viral plaque assay; format: cell-based, dengue virus; conditions: 15 μM, BHK21, MOI 1, yield at 24 hpi
DENV2 NGC [2] = assay: low MOI multiple replication cycle infection experiment; format: cell-based, dengue virus; conditions: MOI 0.01, treatment delayed until 24 hpi; GNF-2 15 μM, 8b 5 μM; titers at 48, 72 hpi
[3] = molecular target: recombinant, soluble DENV2 E protein (sE), prefusion (Dengue virus type 2, UniProt P14340); assay: Alphascreen assay, GNF2-biotin and prefusion sE; conditions: increasing concentrations, 20 nM to 10 μM
DENV2 NGC [4] = conditions: dose-response, inhibitor present during entire single round, MOI 1, 24 hpi

NC(=O)c1cccc(-c2cc(Nc3ccc(OC(F)(F)F)cc3)ncn2)c1 [GNF-2]
antiviral effect when added post-infection (POST, 0-5 hours) (DENV2 NGC [1]): inhibit DENV2 | antiviral effect when pre-incubated with viral inoculum (PRE virus) (DENV2 NGC [1]): additional antiviral activity | inhibition of DENV2 over multiple replication cycles (DENV2 NGC [2]): inhibit DENV2 | competition with GNF2-biotin for prefusion sE (Alphascreen signal) [3]: decrease the Alphascreen signal | antiviral activity in single-cycle virus yield reduction assay (DENV2 NGC [4]): more antiviral activity than imatinib
